This is an account of results in paper PMC7377239, “Cardiovascular Effects of Polychlorinated Biphenyls and Their Major Metabolites” (Environmental Health Perspectives, 2020).

One test relates to HUVECs. Nature of the test: Tube formation (tubulogenesis) assay in HUVECs, 18 h. The conditions noted are these: Homo sapiens, HUVEC, 18 h; for activity at 0.1 µM: 0.10 µM. Type of test: cell-based, human. The method, boiled down: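 HUVECs (passage 1–5) seeded on reduced-growth-factor basement membrane and exposed to compounds overnight at 37°C, 5% CO2, in 2× maintenance medium with 12.5 ng/mL VEGF; 0.5% DMSO vehicle. Calcein AM-stained tube networks imaged and analysed; vehicle-normalized readouts fit to four-parameter logistic, POD set at one SD of vehicle means.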

In test [1] the test system is iCell endothelial cells (human iPSC-derived ECs). Put plainly: High-content imaging cytotoxicity in iCell endothelial cells, 24 h. The format is cell-based. Particulars: Homo sapiens, Endothelial cell, 24 hr; for viability at 0.1 µM / activity at 0.1 µM: 0.10 µM. The method, boiled down: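 Human iPSC-derived endothelial cells (passages 1–5) were grown to a fibronectin-coated monolayer, then exposed 24 h at 37 °C with 0.5% DMSO vehicle. Staining was Hoechst 33342, MitoTracker Orange and calcein AM, read by high-content imaging. Point of departure came from 4-parameter logistic fits, with a 1-SD vehicle cutoff and 100 µM as the top concentration.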

Setting [2] is: HUVECs, 0.00 µM = 100.00, read-out: huvec.mtl.18hr.
[3] abbreviates: HUVECs, 0.00 µM = 100.00, read-out: huvec.tlps.18hr.
[4] abbreviates: HUVECs, 0.00 µM = 100.00, read-out: huvec.tta.18hr.
Where [5] appears, read: HUVECs, 0.00 µM = 100.00, read-out: huvec.ttl.18hr.
Setting [6] is: iPSC-EC, 0.00 µM control = 100.00, read-out: endo.cyto.24hr.
Setting [7] is: iPSC-EC, 0.00 µM control = 100.00, read-out: endo.mito.24hr.
Where [8] appears, read: iPSC-EC, 0.00 µM control = 100.00, read-out: endo.mitoint.24hr.
[9] abbreviates: iPSC-EC, 0.00 µM control = 100.00, read-out: endo.nma.24hr.
The mark [10] stands for this setting: iPSC-EC, 0.00 µM control = 100.00, read-out: endo.tc.24hrs.
The mark [11] stands for this setting: tube formation mtl, read-out: POD huvec.mtl.18hr.
[12] abbreviates: tube formation tlps, read-out: POD huvec.tlps.18hr.
Setting [13] is: tube formation tta, read-out: POD huvec.tta.18hr.
[14] abbreviates: tube formation ttl, read-out: POD huvec.ttl.18hr.
Where [15] appears, read: endothelial cells (endo), cyto, read-out: POD endo.cyto.24hr.
[16] abbreviates: endothelial cells (endo), mito, read-out: POD endo.mito.24hr.
[17] abbreviates: endothelial cells (endo), mitoint, read-out: POD endo.mitoint.24hr.
[18] abbreviates: endothelial cells (endo), nma, read-out: POD endo.nma.24hr.
Setting [19] is: endothelial cells (endo), tc, read-out: POD endo.tc.24hr.

Read-outs that look alike come from different tables or passages of the source.

Take `COc1ccc(-c2ccc(Cl)cc2)cc1` [4'-OMe PCB3]: the activity at 0.01 µM with HUVECs (setting [2]) was found to be 112%; with HUVECs (setting [3]), 133%; in the test with HUVECs (setting [4]), 123%; in the test with HUVECs (setting [5]), 113%; in test [1] (setting [7]) it was 93.4%; in test [1] (setting [8]), 107%. In test [1] (setting [9]), the activity at 0.01 µM was found to be 105%. The activity at 0.1 µM worked out at 111% with HUVECs (setting [2]); 139% with HUVECs (setting [3]); 131% in the test with HUVECs (setting [4]); 125% in the test with HUVECs (setting [5]); 103% in test [1] (setting [7]); 99.7% in test [1] (setting [8]). In addition, the activity at 0.1 µM in test [1] (setting [9]) turned out to be 98.5%. Also, the activity at 1 µM in the test on HUVECs (setting [2]) came out at 103%; with HUVECs (setting [3]) it was 128%; in the test with HUVECs (setting [4]), 116%; with HUVECs (setting [5]), 111%; in test [1] (setting [7]) it was 96%; in test [1] (setting [8]) it was 102%. The activity at 1 µM in test [1] (setting [9]) stood at 102%. Also, the activity at 10 µM in the test on HUVECs (setting [2]) is 81.4%; with HUVECs (setting [3]), 122%; in the test on HUVECs (setting [4]) it was 75.2%; with HUVECs (setting [5]), 75.8%; in test [1] (setting [7]), 109%; in test [1] (setting [8]), 107%. The activity at 10 µM in test [1] (setting [9]) is 95%. For the same molecule, the activity at 100 µM in the test on HUVECs (setting [2]) turned out to be 58.6%; in the test on HUVECs (setting [3]), 37.2%; in the test with HUVECs (setting [4]), 51.7%; in the test on HUVECs (setting [5]) it was 48.9%; in test [1] (setting [7]) it was 93.7%; in test [1] (setting [8]) it was 119%. For the same molecule, in test [1] (setting [9]), the activity at 100 µM was found to be 99.7%. Also, the minimal effective concentration in the test on HUVECs (HUVECs, top concentration 100.00 µM, read-out: huvec.mtl.18hr POD) was found to be 7.13 µM; with HUVECs (HUVECs, top concentration 100.00 µM, read-out: huvec.tlps.18hr POD) it was 49.5 µM; in the test with HUVECs (HUVECs, top concentration 100.00 µM, read-out: huvec.tta.18hr POD), 8.82 µM; with HUVECs (HUVECs, top concentration 100.00 µM, read-out: huvec.ttl.18hr POD) it was 7.82 µM; in test [1] (iPSC-EC, top concentration 100.00 µM, read-out: endo.cyto.24hr POD) it was 100 µM; in test [1] (iPSC-EC, top concentration 100.00 µM, read-out: endo.mito.24hr POD), 100 µM. For the same molecule, the minimal effective concentration was 20.5 µM in test [1] (iPSC-EC, top concentration 100.00 µM, read-out: endo.mitoint.24hr POD); 100 µM in test [1] (iPSC-EC, top concentration 100.00 µM, read-out: endo.nma.24hr POD); 100 µM in test [1] (iPSC-EC, top concentration 100.00 µM, read-out: endo.tc.24hrs POD). The viability at 0.01 µM in test [1] (setting [6]) and in test [1] (setting [10]) was 93.4% each time. Besides, the viability at 0.1 µM in test [1] (setting [6]) and in test [1] (setting [10]) was 103% in each case. Also, the viability at 1 µM in test [1] (setting [6]) and in test [1] (setting [10]) was 95.6% throughout. Besides, the viability at 10 µM in test [1] (setting [6]) and in test [1] (setting [10]) was 108% in each case. In addition, the viability at 100 µM in test [1] (setting [6]) was determined as 93.3%; in test [1] (setting [10]) it was 93.5%.

For `Oc1cc(Cl)cc(-c2cccc(Cl)c2)c1` [5-OH-PCB 11], the minimal effective concentration was determined as 6.98 µM with HUVECs (setting [11]); 100 µM in the test on HUVECs (setting [12]); 100 µM with HUVECs (setting [13]); 32.7 µM in the test with HUVECs (setting [14]); 42.3 µM in test [1] (setting [15]); 42.3 µM in test [1] (setting [16]). Further, the minimal effective concentration amounted to 55 µM in test [1] (setting [17]), 14.2 µM in test [1] (setting [18]) and 43.2 µM in test [1] (setting [19]).

Regarding `COc1cc(Cl)c(-c2cc(Cl)ccc2Cl)cc1Cl` [4-OMe-PCB 52, 4-methoxy-2,2′,5,5′-tetrachlorobiphenyl], the minimal effective concentration in the test on HUVECs (setting [11]) was found to be 17.1 µM; in the test with HUVECs (setting [12]) it was 14.2 µM; with HUVECs (setting [13]) it was 100 µM; with HUVECs (setting [14]), 100 µM; in test [1] (setting [15]), 43.5 µM; in test [1] (setting [16]), 43.5 µM. For the same molecule, the minimal effective concentration in test [1] (setting [17]) is 100 µM; in test [1] (setting [18]), 56.1 µM; in test [1] (setting [19]), 40.3 µM.
